Data as given in paper PMC2566858 (Nucleic Acids Research, 2008).

Columns and labels:
[1] = target: rGyr_fl (Thermotoga maritima, UniProt O51934, K106Q/Y851F); assay: biochemical
[2] = target: rGyr_hel (Thermotoga maritima, UniProt O51934, K106Q); assay: biochemical
[3] = target: T1, rGyr_hel (Thermotoga maritima, UniProt O51934); assay: fluorescence equilibrium titration; format: binding
T1 sequence (O51934 59-541): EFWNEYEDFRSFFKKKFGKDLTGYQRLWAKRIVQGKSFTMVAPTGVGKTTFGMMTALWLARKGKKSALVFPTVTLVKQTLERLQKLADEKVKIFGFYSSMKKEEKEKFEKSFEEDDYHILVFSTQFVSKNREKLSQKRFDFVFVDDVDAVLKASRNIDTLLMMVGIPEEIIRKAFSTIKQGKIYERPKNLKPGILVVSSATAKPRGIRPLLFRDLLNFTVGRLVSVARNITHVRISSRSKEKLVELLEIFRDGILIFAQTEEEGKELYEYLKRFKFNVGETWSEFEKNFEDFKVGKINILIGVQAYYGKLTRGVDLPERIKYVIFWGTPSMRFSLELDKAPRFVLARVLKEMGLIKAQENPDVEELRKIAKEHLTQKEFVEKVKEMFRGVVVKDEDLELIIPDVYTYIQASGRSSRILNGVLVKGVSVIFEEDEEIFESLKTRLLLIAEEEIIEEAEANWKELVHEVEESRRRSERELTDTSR

Chain of rGyr_fl (O51934 whole entry K106Q/Y851F): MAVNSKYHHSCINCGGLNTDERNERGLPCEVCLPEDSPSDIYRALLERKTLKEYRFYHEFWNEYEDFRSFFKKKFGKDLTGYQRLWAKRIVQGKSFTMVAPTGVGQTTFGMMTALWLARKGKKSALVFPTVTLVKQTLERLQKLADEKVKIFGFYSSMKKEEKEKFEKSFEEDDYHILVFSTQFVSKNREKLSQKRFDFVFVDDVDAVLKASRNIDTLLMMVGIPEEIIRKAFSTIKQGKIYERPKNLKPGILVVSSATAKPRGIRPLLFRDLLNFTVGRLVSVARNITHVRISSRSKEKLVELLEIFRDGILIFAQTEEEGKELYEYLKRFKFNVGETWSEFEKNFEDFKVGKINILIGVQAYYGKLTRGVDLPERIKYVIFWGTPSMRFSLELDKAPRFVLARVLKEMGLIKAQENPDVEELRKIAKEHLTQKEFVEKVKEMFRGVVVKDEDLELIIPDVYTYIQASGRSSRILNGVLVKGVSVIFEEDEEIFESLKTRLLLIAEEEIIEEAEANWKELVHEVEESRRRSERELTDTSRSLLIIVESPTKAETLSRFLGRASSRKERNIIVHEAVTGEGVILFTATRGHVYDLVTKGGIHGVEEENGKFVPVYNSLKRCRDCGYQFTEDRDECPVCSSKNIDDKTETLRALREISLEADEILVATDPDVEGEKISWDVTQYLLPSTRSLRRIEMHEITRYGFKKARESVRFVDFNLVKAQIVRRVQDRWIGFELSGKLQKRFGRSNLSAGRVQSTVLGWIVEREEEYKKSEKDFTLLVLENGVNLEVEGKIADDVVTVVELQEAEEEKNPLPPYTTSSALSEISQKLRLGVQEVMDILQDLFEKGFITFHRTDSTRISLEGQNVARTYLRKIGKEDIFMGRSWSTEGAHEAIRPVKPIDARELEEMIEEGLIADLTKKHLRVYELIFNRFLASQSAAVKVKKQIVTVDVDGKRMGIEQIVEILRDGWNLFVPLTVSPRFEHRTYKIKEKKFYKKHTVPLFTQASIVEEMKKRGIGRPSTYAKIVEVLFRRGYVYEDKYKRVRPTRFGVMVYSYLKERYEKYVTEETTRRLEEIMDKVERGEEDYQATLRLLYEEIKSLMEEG
Chain of rGyr_hel (Thermotoga maritima, UniProt O51934, K106Q) (O51934 59-541 K106Q): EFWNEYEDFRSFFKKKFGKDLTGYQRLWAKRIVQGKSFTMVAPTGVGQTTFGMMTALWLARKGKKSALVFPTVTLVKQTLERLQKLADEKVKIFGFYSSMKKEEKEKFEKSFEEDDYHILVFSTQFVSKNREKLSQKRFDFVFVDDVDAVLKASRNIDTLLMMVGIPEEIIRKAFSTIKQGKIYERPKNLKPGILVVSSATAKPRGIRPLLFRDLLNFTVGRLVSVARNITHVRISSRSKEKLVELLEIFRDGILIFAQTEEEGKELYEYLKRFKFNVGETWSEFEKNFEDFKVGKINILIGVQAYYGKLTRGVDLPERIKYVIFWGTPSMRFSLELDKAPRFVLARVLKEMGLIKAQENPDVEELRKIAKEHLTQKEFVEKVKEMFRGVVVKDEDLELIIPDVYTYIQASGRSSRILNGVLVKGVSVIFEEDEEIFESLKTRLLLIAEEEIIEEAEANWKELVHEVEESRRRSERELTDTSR

Row | Kd [1] [µM] | Kd [2] [µM] | Kd [3] [µM] | SMILES
1 | 36 ± 5 | 150 ± 85 | – | Nc1ncnc2c1ncn2[C@@H]1O[C@H](COP(=O)(O)OP(=O)(O)O)[C@@H](O)[C@H]1O [ADP]
2 | – | – | 1600 ± 231 | Nc1ncnc2c1ncn2[C@@H]1O[C@H](COP(=O)(O)O)[C@@H](O)[C@H]1O [AMP]
3 | 98 ± 12 | 570 ± 300 | – | Nc1ncnc2c1ncn2[C@@H]1O[C@H](COP(=O)(O)OP(=O)(O)OP(=O)(O)O)[C@@H](O)[C@H]1O [ATP]
